This assay concerns P388 leukemia ip, CD2F1 mice, survival T/C. Briefly: NCI In Vivo Anticancer Drug Screen. Data for tumor model P388 Leukemia (intraperitoneal) in CD2F1 (CDF1) mice. Conditions: endpoint: median survival time, higher = longer survival. The method, boiled down: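 Mice carrying the transplanted tumor received test compound or vehicle. Survival was recorded in each group, and the value is the treated-group measurement divided by that of the vehicle-treated control group.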

The mark [1] stands for this setting: dose: 25.0 mg/kg/injection, schedule: Q01DX005 (ip), vehicle: Klucel (hydroxypropylcellulose) (HPC).
Setting [2] is: dose: 50.0 mg/kg/injection, schedule: Q01DX005 (ip), vehicle: Klucel (hydroxypropylcellulose) (HPC).
Setting [3] is: dose: 100.0 mg/kg/injection, schedule: Q01DX005 (ip), vehicle: Klucel (hydroxypropylcellulose) (HPC).
[4] abbreviates: dose: 200.0 mg/kg/injection, schedule: Q01DX005 (ip), vehicle: Klucel (hydroxypropylcellulose) (HPC).
[5] abbreviates: dose: 100.0 mg/kg/injection, schedule: Q04DX002 (ip), vehicle: saline with Tween-80.
The mark [6] stands for this setting: dose: 200.0 mg/kg/injection, schedule: Q04DX002 (ip), vehicle: saline with Tween-80.
Where [7] appears, read: dose: 400.0 mg/kg/injection, schedule: Q04DX002 (ip), vehicle: saline with Tween-80.
Setting [8] is: dose: 12.5 mg/kg/injection, schedule: Q01DX009 (ip), vehicle: saline.
[9] abbreviates: dose: 25.0 mg/kg/injection, schedule: Q01DX009 (ip), vehicle: saline.
The mark [10] stands for this setting: dose: 100.0 mg/kg/injection, schedule: Q01DX009 (ip), vehicle: saline.
Where [11] appears, read: dose: 50.0 mg/kg/injection, schedule: Q01DX005 (ip), vehicle: saline with Tween-80.
Setting [12] is: dose: 100.0 mg/kg/injection, schedule: Q01DX005 (ip), vehicle: saline with Tween-80.
The mark [13] stands for this setting: dose: 200.0 mg/kg/injection, schedule: Q01DX005 (ip), vehicle: saline with Tween-80.
The mark [14] stands for this setting: dose: 60.0 mg/kg/injection, schedule: Q01DX005 (ip), vehicle: saline with Tween-80.
Where [15] appears, read: dose: 120.0 mg/kg/injection, schedule: Q01DX005 (ip), vehicle: saline with Tween-80.
Where [16] appears, read: dose: 240.0 mg/kg/injection, schedule: Q01DX005 (ip), vehicle: saline with Tween-80.

This passage reports T/C results from PubChem BioAssay AID330 (DTP/NCI, 2004).

Structures are written as SMILES. “And” between values parts separate entries of the source, which are not always exact repeats. Equal values may be shown once. Toxic doses and inconclusive results are not listed.

Consider `COc1cc(/C=C/c2ccncc2)ccc1OC(C)=O`, for which the T/C is, setting by setting: under setting [1], 100 % of control; under setting [2], 100 % of control; under setting [3], 101 % of control; under setting [4], 100 % of control.

With `CSC(=S)/C=C(\O)c1ccccc1`, the T/C was 95 % of control (dose: 100.0 mg/kg/injection, schedule: Q04DX003 (ip), vehicle: saline) and 104 % of control (dose: 200.0 mg/kg/injection, schedule: Q04DX003 (ip), vehicle: saline).

For `CC(=O)c1c(-c2ccc(-c3c[nH]c(C)c3C(C)=O)cc2)c[nH]c1C`, the T/C under setting [5] was 95 % of control, the T/C under setting [6] was 91 % of control and the T/C under setting [7] is 91 % of control.

As to `COc1ccc2nc(C)cc(N/N=C/c3cccc(C)n3)c2c1`, the T/C (dose: 12.5 mg/kg/injection, schedule: Q01DX009 (ip), vehicle: Klucel (hydroxypropylcellulose) (HPC)) is 99 % of control and 104 % of control; the T/C (dose: 25.0 mg/kg/injection, schedule: Q01DX009 (ip), vehicle: Klucel (hydroxypropylcellulose) (HPC)) is 99 % of control and 105 % of control; the T/C (dose: 50.0 mg/kg/injection, schedule: Q01DX009 (ip), vehicle: Klucel (hydroxypropylcellulose) (HPC)) is 113 % of control and 122 % of control.

Turning to `C[CH2][Sn]([F])([F])[CH2]C`, the T/C reads like this: (dose: 6.25 mg/kg/injection, schedule: Q04DX003 (ip), vehicle: saline) 107 % of control; (dose: 12.5 mg/kg/injection, schedule: Q04DX003 (ip), vehicle: saline) 108 % of control; (dose: 25.0 mg/kg/injection, schedule: Q04DX003 (ip), vehicle: saline) 116 % of control.

On to `CC1OC(OC2C(O)C(OCCc3ccc(O)c(O)c3)OC(CO)C2OC(=O)/C=C/c2ccc(O)c(O)c2)C(O)C(O)C1O` (configuration not stated), for which the T/C by setting is: (dose: 4.75 mg/kg/injection, schedule: Q01DX005 (ip), vehicle: Klucel (hydroxypropylcellulose) (HPC)) 106 % of control; (dose: 9.5 mg/kg/injection, schedule: Q01DX005 (ip), vehicle: Klucel (hydroxypropylcellulose) (HPC)) 100 % of control; (dose: 19.0 mg/kg/injection, schedule: Q01DX005 (ip), vehicle: Klucel (hydroxypropylcellulose) (HPC)) 100 % of control; (dose: 38.0 mg/kg/injection, schedule: Q01DX005 (ip), vehicle: Klucel (hydroxypropylcellulose) (HPC)) 100 % of control.

For the compound `CC(=O)Oc1cccnc1[N+](=O)[O-]`, the T/C by setting is: under setting [8], 103 % of control and 106 % of control; under setting [9], 100 % of control and 101 % of control; (dose: 50.0 mg/kg/injection, schedule: Q01DX009 (ip), vehicle: saline) 102 % of control and 120 % of control and 94 % of control; under setting [10], 106 % of control and 108 % of control and 123 % of control; (dose: 200.0 mg/kg/injection, schedule: Q01DX009 (ip), vehicle: saline) 105 % of control and 119 % of control; (dose: 400.0 mg/kg/injection, schedule: Q01DX009 (ip), vehicle: saline) 105 % of control.

`COC(CNC(=O)COc1ccccc1OCC(=O)NCC(OC)OC)OC`: the T/C (dose: 50.0 mg/kg/injection, schedule: Q01DX005 (ip), vehicle: saline) was 99 % of control; the T/C (dose: 100.0 mg/kg/injection, schedule: Q01DX005 (ip), vehicle: saline) was 102 % of control; the T/C (dose: 200.0 mg/kg/injection, schedule: Q01DX005 (ip), vehicle: saline) was 102 % of control.

In the case of `COc1c(NC=O)c2c(c([N+](=O)[O-])c1OC)C(=O)OC2`, the T/C was 102 % of control under setting [2], 99 % of control under setting [3] and 98 % of control under setting [4].

Consider `C=C(C)CNCCN`, for which the T/C under setting [11] was 112 % of control, the T/C under setting [12] is 112 % of control and the T/C under setting [13] was 112 % of control.

As for `N#CC1CCCC(C#N)N1CN1C(C#N)CCCC1C#N` (configuration not stated), the T/C is 97 % of control under setting [2] and 88 % of control under setting [3].

Turning to `CNC(=S)N/N=C(C)/C=C/c1ccccc1`, the T/C is 107 % of control under setting [2], 101 % of control under setting [3] and 101 % of control under setting [4].

`CCCCCCCCC#CCCCCCCCCCCCC(=O)O`: the T/C (dose: 50.0 mg/kg/injection, schedule: Q01DX009 (ip), vehicle: saline with Tween-80) was 88 % of control and the T/C (dose: 200.0 mg/kg/injection, schedule: Q01DX009 (ip), vehicle: saline with Tween-80) is 90 % of control.

For `O=C(CN1CCN(c2ccccc2)CC1)n1ccnc1`, the T/C reads like this: under setting [14], 95 % of control; under setting [15], 97 % of control; under setting [16], 100 % of control.

With `CC(=Nc1ccccc1)C1=C(O)C(Cc2ccccc2)NC1=O` (configuration not stated), the T/C (dose: 25.0 mg/kg/injection, schedule: Q01DX009 (ip), vehicle: saline with Tween-80) was 106 % of control.

With `COc1ccc(NN=O)nc1Br`, the T/C (dose: 3.12 mg/kg/injection, schedule: Q01DX009 (ip), vehicle: saline) was 108 % of control; the T/C (dose: 6.25 mg/kg/injection, schedule: Q01DX009 (ip), vehicle: saline) was 108 % of control; the T/C under setting [8] is 108 % of control and 109 % of control; the T/C under setting [9] was 110 % of control and 120 % of control; the T/C under setting [10] was 157 % of control.

Turning to `COC(=O)c1ncn(CCCO)c1O`, the T/C runs as follows: (dose: 100.0 mg/kg/injection, schedule: Q01DX001 (ip), vehicle: saline) 92 % of control; (dose: 200.0 mg/kg/injection, schedule: Q01DX001 (ip), vehicle: saline) 100 % of control; (dose: 400.0 mg/kg/injection, schedule: Q01DX001 (ip), vehicle: saline) 104 % of control.

As for `N=C(N)n1ncc2c1CCC/C2=N/N=C(N)N`, the T/C is 99 % of control under setting [14], 96 % of control under setting [15] and 103 % of control under setting [16].

In the case of `CN(O)C(=O)/C=C/c1ccccc1`, the T/C (dose: 50.0 mg/kg/injection, schedule: Q01DX009 (ip), vehicle: distilled water + Tween-80) is 104 % of control; the T/C (dose: 100.0 mg/kg/injection, schedule: Q01DX009 (ip), vehicle: distilled water + Tween-80) was 104 % of control; the T/C (dose: 200.0 mg/kg/injection, schedule: Q01DX009 (ip), vehicle: distilled water + Tween-80) is 110 % of control.

`Oc1cc2c(cc1C(Nc1ncccn1)c1ccc3c(c1)OCO3)OCO2` (configuration not stated): the T/C was 102 % of control under setting [14], 100 % of control under setting [15] and 95 % of control under setting [16].

In the case of `COC(=O)C(C)NC(=O)C(C)NC(=O)c1ccc(OC)cc1` (configuration not stated), the T/C is 105 % of control under setting [5], 99 % of control under setting [6] and 91 % of control under setting [7].

In the case of `CNC(=O)OCc1c(COC(=O)NC)c2n(c1C)CS(=O)C2` (configuration not stated), the T/C (dose: 25.0 mg/kg/injection, schedule: Q01DX005 (ip), vehicle: saline with Tween-80) was 113 % of control; the T/C under setting [11] is 113 % of control; the T/C under setting [12] is 121 % of control and 122 % of control; the T/C under setting [13] is 113 % of control and 115 % of control.

As to `O=C(O)c1ccc(Cn2ccc(=O)[nH]c2=O)cc1`, the T/C is, setting by setting: (dose: 100.0 mg/kg/injection, schedule: Q01DX001 (ip), vehicle: saline with Tween-80) 100 % of control; (dose: 200.0 mg/kg/injection, schedule: Q01DX001 (ip), vehicle: saline with Tween-80) 100 % of control; (dose: 400.0 mg/kg/injection, schedule: Q01DX001 (ip), vehicle: saline with Tween-80) 100 % of control.

As to `CC1(C)CC2(Nc3ccccc3N2)C2=C(O1)C(=O)OC2`, the T/C runs as follows: under setting [14], 101 % of control; under setting [15], 103 % of control; under setting [16], 92 % of control.

For `O=C(O)C(=Cc1cccc2ccccc12)C(=O)O`, the T/C by setting is: under setting [1], 89 % of control; under setting [2], 100 % of control; under setting [3], 89 % of control.

Regarding `COC(=O)C1(C2(C(=O)OC)NC(C)=C(c3ccccc3)C(=O)O2)NC(C)=C(c2ccccc2)C(=O)O1` (configuration not stated), the T/C reads like this: under setting [11], 97 % of control; under setting [12], 100 % of control; under setting [13], 91 % of control.

With `CCOc1ccc2c(c1)c(C)cc(C)[n+]2CC`, the T/C by setting is: (dose: 6.25 mg/kg/injection, schedule: Q04DX003 (ip), vehicle: saline with Tween-80) 97 % of control; (dose: 12.5 mg/kg/injection, schedule: Q04DX003 (ip), vehicle: saline with Tween-80) 99 % of control.

On to `O=C(/C=C/c1cccc(Cl)c1)c1ccc(Cl)cc1`, for which the T/C by setting is: (dose: 30.0 mg/kg/injection, schedule: Q01DX005 (ip), vehicle: saline with Tween-80) 102 % of control; under setting [14], 100 % of control; under setting [15], 100 % of control; under setting [16], 110 % of control.
